Reference: PMC8453901, “GLPG1205, a GPR84 Modulator: Safety, Pharmacokinetics, and Pharmacodynamics in Healthy Subjects” (Clinical Pharmacology in Drug Development, 2021)
“Also recorded” adds a separate entry of the source.

Experiments:
CYP3A4 = CYP3A4 induction by 6β-OH-cortisol/cortisol ratio in urine; type: in vivo, human; details: 50 mg, 100 mg and 200/150 mg once daily; days -1 and 13
Protocol: The potential of CYP3A4 induction was assessed by means of the ratio of 6β‐OH‐cortisol to cortisol in urine.[10], [11], [12], [13], [14] Cortisol concentrations in urine were determined by using a radioimmunoassay method based on competition between labeled antigens and antigens on the specific sites of the antiserum coated on the tubes. At the end of the incubation period, the liquid in the tubes was removed by aspiration and the radioactivity (^125I‐cortisol) was measured using a gamma counter (Packard Cobra II auto‐gamma counter; Packard Instrument Co Inc, Meriden, Connecticut). […] The best curve was determined by the polynomial second‐order equation. The limit of quantification of the cortisol assay for the urine samples was set at 10 ng/mL.
6β‐OH‐cortisol concentrations in urine were determined by using a 2‐step, quantitative competitive enzyme immunoassay technique. […] The calibration equation was computed using SoftMax Pro software (Molecular Devices, Sunnyvale, California) by plotting the log of 6β‐OH‐cortisol concentrations versus the A/Ao (when A was standard or sample 6β‐OH‐cortisol absorbance and Ao was the standard 0 absorbance). The best line was determined by using the 4‐parameter logistic model. The limit of quantification of the 6β‐OH‐cortisol assay for the urine samples was set at 50 pg/mL. […]

CYP2C9 = tested on: CYP2C9; design: method as in data on file at Galapagos; details: in vitro; ref data on file at Galapagos; cited from earlier work
[1] = Safety and tolerability, study 2; type: in vivo, human
Protocol: Safety and tolerability were assessed on the basis of adverse events (AEs), which were monitored throughout both studies. Additional safety assessments included vital signs (including supine [and standing in study 2] heart rate, systolic and diastolic blood pressure, and oral body temperature), 12‐lead electrocardiogram (ECG), clinical laboratory tests (hematology, coagulation [study 2 only], serum/plasma chemistry, urinalysis, urine drug screen, serology, and alcohol breath test), and a comprehensive physical examination. In the SAD part of study 1, clinical laboratory tests, physical examination, and vital signs were assessed at the screening visit, at the time of dosing (0 hours after dose), 24 hours after dosing and at follow‐up (7 to 10 days after the final dose). Vital signs were additionally observed 2 hours after dosing, and the 12‐lead ECG was additionally completed at 1, 2, 6, 8, and 12 hours after dosing. In the MAD part of study 1, all additional safety assessments were performed at screening; days 1, 2, 8, 14, and 15; and at follow‐up. In study 2, additional safety assessments were performed at screening (between 21 and 2 days before the first study drug administration); days 1, 2, 5, 10, 14, 15, and 20 (clinical laboratory tests were not performed on day 20); at early discontinuation; and at follow‐up. For study 2, renal function tests (measurement of estimated creatinine clearance rate using the Cockcroft‐Gault equation) were also included in the clinical laboratory tests for safety assessment.
In both studies, the safety analysis was descriptive and focused on changes from baseline and treatment‐emergent findings.

[2] = part 1, 50 mg QD, 18–50 years (n = 6)
[3] = part 1, 50 mg QD, 65–74 years (n = 6)
[4] = part 1, 50 mg QD, ≥ 75 years (n = 6)
[5] = part 2, 250 mg loading dose + 50 mg QD, 65–74 years (n = 8)

O=c1nc(OC[C@@H]2COCCO2)cc2n1CCc1cc(C#CC3CC3)ccc1-2 [GLPG1205, 9‐cyclopropylethynyl‐2‐((S)‐1‐[1,4]dioxan‐2‐ylmethoxy)‐6,7‐dihydropyrimido[6,1‐a]isoquinolin‐4‐one]
6β‐OH‐cortisol/cortisol ratio in urine (CYP3A4): No significant day and dose effects; also recorded: did not impact
inhibition of CYP2C9 (CYP2C9): weak inhibition
Any TEAE [1, 2]: 5 (83.3) number of subjects (%)
Diarrhea (TEAE) [1, 2]: 0 number of subjects (%)
Erectile dysfunction (TEAE) [1, 2]: 2 (33.3) number of subjects (%)
Gastrointestinal disorders (TEAE) [1, 2]: 2 (33.3) number of subjects (%)
Headache (TEAE) [1, 2]: 3 (50.0) number of subjects (%)
Infections and infestations (TEAE) [1, 2]: 1 (16.7) number of subjects (%)
Nasopharyngitis (TEAE) [1, 2]: 1 (16.7) number of subjects (%)
Nausea (TEAE) [1, 2]: 2 (33.3) number of subjects (%)
Nervous system disorders (TEAE) [1, 2]: 3 (50.0) number of subjects (%)
Reproductive system and breast disorders (TEAE) [1, 2]: 2 (33.3) number of subjects (%)
Vomiting (TEAE) [1, 2]: 0 number of subjects (%)
Any TEAE [1, 3]: 5 (83.3) number of subjects (%)
Diarrhea (TEAE) [1, 3]: 0 number of subjects (%)
Erectile dysfunction (TEAE) [1, 3]: 0 number of subjects (%)
Gastrointestinal disorders (TEAE) [1, 3]: 1 (16.7) number of subjects (%)
Headache (TEAE) [1, 3]: 3 (50.0) number of subjects (%)
Infections and infestations (TEAE) [1, 3]: 3 (50.0) number of subjects (%)
Nasopharyngitis (TEAE) [1, 3]: 2 (33.3) number of subjects (%)
Nausea (TEAE) [1, 3]: 0 number of subjects (%)
Nervous system disorders (TEAE) [1, 3]: 4 (66.7) number of subjects (%)
Reproductive system and breast disorders (TEAE) [1, 3]: 0 number of subjects (%)
Vomiting (TEAE) [1, 3]: 0 number of subjects (%)
Any TEAE [1, 4]: 3 (50.0) number of subjects (%)
Diarrhea (TEAE) [1, 4]: 0 number of subjects (%)
Erectile dysfunction (TEAE) [1, 4]: 0 number of subjects (%)
Gastrointestinal disorders (TEAE) [1, 4]: 1 (16.7) number of subjects (%)
Headache (TEAE) [1, 4]: 0 number of subjects (%)
Infections and infestations (TEAE) [1, 4]: 0 number of subjects (%)
Nasopharyngitis (TEAE) [1, 4]: 0 number of subjects (%)
Nausea (TEAE) [1, 4]: 0 number of subjects (%)
Nervous system disorders (TEAE) [1, 4]: 0 number of subjects (%)
Polyuria (TEAE) [1, 4]: 2 (33.3) 2 (33.3) number of subjects (%)
Renal and urinary disorders (TEAE) [1, 4]: 2 (33.3) 2 (33.3) number of subjects (%)
Reproductive system and breast disorders (TEAE) [1, 4]: 0 number of subjects (%)
Vomiting (TEAE) [1, 4]: 0 number of subjects (%)
Any TEAE [1, 5]: 7 (87.5) number of subjects (%)
Diarrhea (TEAE) [1, 5]: 1 (12.5) number of subjects (%)
Erectile dysfunction (TEAE) [1, 5]: 0 number of subjects (%)
Gastrointestinal disorders (TEAE) [1, 5]: 4 (50.0) number of subjects (%)
Headache (TEAE) [1, 5]: 1 (12.5) number of subjects (%)
Infections and infestations (TEAE) [1, 5]: 0 number of subjects (%)
Nasopharyngitis (TEAE) [1, 5]: 0 number of subjects (%)
Nausea (TEAE) [1, 5]: 3 (37.5) number of subjects (%)
Nervous system disorders (TEAE) [1, 5]: 1 (12.5) number of subjects (%)
Polyuria (TEAE) [1, 5]: 0 number of subjects (%)
Renal and urinary disorders (TEAE) [1, 5]: 0 number of subjects (%)
Reproductive system and breast disorders (TEAE) [1, 5]: 0 number of subjects (%)
Vomiting (TEAE) [1, 5]: 2 (25.0) number of subjects (%)
nausea of mild intensity ([1]; part 2, loading dose): 2 n
nausea of moderate intensity ([1]; part 2, loading dose): 1 n
